The values below come from PubChem BioAssay (NCI).

Among the test systems are SK-MEL-5 melanoma; NCI-H226 lung; SF-539 CNS; NCI-H460 lung; NCI-H23 lung; OVCAR-5 ovarian; SW-620 colon; OVCAR-3 ovarian; HS 578T breast; MALME-3M melanoma.
What all share (test): DTP human tumour cell line panel, 48 h

Molecules are shown by their SMILES.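 A five-concentration, 48-hour dose response in 96-well plates underlies each endpoint, interpolated linearly between surrounding concentrations. Abbreviation: GI50, concentration required for 50% inhibition of growth. TGI marks complete inhibition of growth.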

For orientation: GI50 means the concentration giving 50% growth inhibition. What is called TGI is the concentration at which net growth stops. The low end stands for greater sensitivity of the cells, the high end for lower sensitivity of the cells. On to `Cn1c(=O)c(Oc2ccc(F)cc2F)cc2cnc(NC(CO)CO)nc21`, for which the GI50 in the experiment with SK-MEL-5 melanoma, in the experiment on NCI-H226 lung, with SF-539 CNS, with NCI-H460 lung, with NCI-H23 lung and in the experiment on OVCAR-5 ovarian was > 25 µM in each case. For the same compound, the GI50 with SW-620 colon, with OVCAR-3 ovarian, in the experiment with HS 578T breast and in the experiment on MALME-3M melanoma was > 25 µM each time. Also, the concentration for total growth inhibition (TGI) in the experiment on SK-MEL-5 melanoma, in the experiment on NCI-H226 lung, in the experiment with SF-539 CNS, in the experiment with NCI-H460 lung, in the experiment with NCI-H23 lung and in the experiment on OVCAR-5 ovarian was > 25 µM each time. Moreover, the concentration for total growth inhibition (TGI) with SW-620 colon, with OVCAR-3 ovarian, in the experiment on HS 578T breast and in the experiment on MALME-3M melanoma was > 25 µM each time.
For `O=C1C=C[C@@]23C[C@@H](Nc4c(O)c5c6c(c42)=NCCC=6C=N5)SC3=C1`, the GI50 with SK-MEL-5 melanoma is 1.93 µM; with SF-539 CNS it was 3.08 µM; in the experiment on NCI-H460 lung, 7.2 µM; with NCI-H23 lung, 2.52 µM; in the experiment on OVCAR-5 ovarian it was 5.13 µM; with SW-620 colon, 1.68 µM. Also, the GI50 was 1.5 µM in the experiment on OVCAR-3 ovarian and 3.75 µM with HS 578T breast. Moreover, the total growth inhibition concentration (TGI) in the experiment on SK-MEL-5 melanoma amounted to 3.38 µM; with NCI-H226 lung, 28.7 µM; in the experiment on SF-539 CNS, 9.58 µM; in the experiment on NCI-H460 lung, 19.8 µM; with NCI-H23 lung, 7.01 µM; with OVCAR-5 ovarian, 9.5 µM. Besides, the TGI came out at 3.31 µM in the experiment with SW-620 colon, 3.76 µM in the experiment on OVCAR-3 ovarian, 19.8 µM in the experiment with HS 578T breast and 2.52 µM with MALME-3M melanoma.
For the compound `Cc1nc2cnc3cc(F)c(-c4ccc(Oc5ncccn5)cc4Cl)cc3c2n1[C@H]1CCN(C(=O)CO)C[C@@H]1F`, the GI50 with SK-MEL-5 melanoma was 0.49 µM; in the experiment on NCI-H226 lung, 5.18 µM; with SF-539 CNS, 3.03 µM; in the experiment on NCI-H460 lung, 2.54 µM; in the experiment with NCI-H23 lung, 0.32 µM; in the experiment on OVCAR-5 ovarian, 0.279 µM. The results for the GI50 in the experiment on SW-620 colon, in the experiment on OVCAR-3 ovarian and in the experiment on HS 578T breast were 0.422 µM, 20 µM and 13.4 µM, respectively. Also, the TGI in the experiment with SK-MEL-5 melanoma is 14.7 µM; with NCI-H226 lung it was 29.8 µM; in the experiment on SF-539 CNS, 16.9 µM; in the experiment on NCI-H460 lung, > 100 µM; in the experiment on NCI-H23 lung, 13.7 µM; in the experiment with OVCAR-5 ovarian, > 40.1 µM. Further, the concentration for total growth inhibition (TGI) with SW-620 colon was 54.6 µM; in the experiment with OVCAR-3 ovarian it was > 76.3 µM; in the experiment with HS 578T breast, 77.3 µM; in the experiment on MALME-3M melanoma it was 0.0316 µM.
With `O=C(/C=C/c1cccs1)c1ccc(Nc2nc(Nc3ccc(F)cc3)nc(Nc3ccc(F)cc3)n2)cc1`, the GI50 is 56.4 µM in the experiment with SK-MEL-5 melanoma; > 100 µM in the experiment on NCI-H226 lung; 17.8 µM with SF-539 CNS; 20.4 µM with NCI-H460 lung; 24.2 µM in the experiment on NCI-H23 lung; > 100 µM in the experiment on OVCAR-5 ovarian. Besides, the GI50 with SW-620 colon is 28.3 µM; with OVCAR-3 ovarian it was 17.7 µM; in the experiment on HS 578T breast, 23.8 µM; with MALME-3M melanoma it was 40.4 µM. For the same compound, the TGI in the experiment with SK-MEL-5 melanoma was > 100 µM; in the experiment on NCI-H226 lung, > 100 µM; with SF-539 CNS it was 35.7 µM; with NCI-H460 lung, > 100 µM; with NCI-H23 lung, 71.2 µM; in the experiment on OVCAR-5 ovarian it was > 100 µM. Besides, the total growth inhibition concentration (TGI) in the experiment on SW-620 colon was 96.4 µM; with OVCAR-3 ovarian, 35.3 µM; in the experiment on HS 578T breast it was 74.3 µM; in the experiment with MALME-3M melanoma it was > 100 µM.
Take `CCc1cccc2c3c(sc12)C(c1ccc(Cl)cc1)C(C#N)=C(N)O3` (configuration not stated): the GI50 in the experiment on SK-MEL-5 melanoma was 0.898 µM; in the experiment on NCI-H226 lung it was 0.881 µM; in the experiment with SF-539 CNS, 0.36 µM; in the experiment on NCI-H460 lung, 0.414 µM; with NCI-H23 lung, 0.692 µM; in the experiment with OVCAR-5 ovarian, 1.42 µM. Besides, the GI50 in the experiment with SW-620 colon was 0.45 µM; in the experiment with OVCAR-3 ovarian, 0.384 µM; with HS 578T breast, 0.363 µM; in the experiment with MALME-3M melanoma it was 0.712 µM. The TGI stood at 12 µM in the experiment with SK-MEL-5 melanoma; 9.43 µM with NCI-H226 lung; 1.56 µM in the experiment with SF-539 CNS; 3.01 µM in the experiment with NCI-H460 lung; 5.18 µM in the experiment on NCI-H23 lung; 8.93 µM with OVCAR-5 ovarian. In addition, the TGI in the experiment with SW-620 colon was found to be 12.2 µM; in the experiment on OVCAR-3 ovarian, 2.67 µM; in the experiment with HS 578T breast, 2.6 µM; in the experiment with MALME-3M melanoma it was 9.9 µM.
In the case of `COc1ccc(-c2cc(-c3ccccc3)nc(N3CCN(CCNc4ccnc5cc(Cl)ccc45)CC3)n2)cc1`, the GI50 is 1.62 µM with SK-MEL-5 melanoma; 4.14 µM with NCI-H226 lung; 1.53 µM in the experiment with SF-539 CNS; 1.92 µM with NCI-H460 lung; 1.9 µM with NCI-H23 lung; 1.92 µM in the experiment on OVCAR-5 ovarian. The GI50 in the experiment on SW-620 colon is 1.73 µM; in the experiment with OVCAR-3 ovarian, 1.89 µM; in the experiment with HS 578T breast, 11.3 µM; in the experiment with MALME-3M melanoma it was 1.61 µM. The TGI in the experiment with SK-MEL-5 melanoma is 3 µM; with NCI-H226 lung it was 25.1 µM; in the experiment on SF-539 CNS, 3.06 µM; in the experiment on NCI-H460 lung, 3.78 µM; in the experiment with NCI-H23 lung, 5.23 µM; in the experiment with OVCAR-5 ovarian it was 4.99 µM. The TGI in the experiment with SW-620 colon was found to be 3.47 µM; with OVCAR-3 ovarian, 3.69 µM; in the experiment with HS 578T breast it was 41.9 µM; in the experiment on MALME-3M melanoma, 3.14 µM.
Consider `Nc1ncnc2c1ncn2CC(O)C(=O)O` (configuration not stated), for which the concentration for total growth inhibition (TGI) in the experiment on SK-MEL-5 melanoma, in the experiment on NCI-H226 lung, with SF-539 CNS, in the experiment on NCI-H460 lung, in the experiment with NCI-H23 lung and in the experiment on OVCAR-5 ovarian was > 100 µM throughout. Moreover, the TGI in the experiment with SW-620 colon, in the experiment on OVCAR-3 ovarian, in the experiment with HS 578T breast and in the experiment on MALME-3M melanoma was > 100 µM throughout.
Turning to `Cn1ccnc1C(=O)/C=C/c1ccc(CC(=O)Nc2ccc(S(F)(F)(F)(F)F)cc2)cc1`, the GI50 with SK-MEL-5 melanoma was 3.02 µM; in the experiment on NCI-H226 lung, 2.93 µM; in the experiment on SF-539 CNS it was 1.02 µM; in the experiment on NCI-H460 lung, 2.25 µM; in the experiment with NCI-H23 lung it was 2.37 µM; with OVCAR-5 ovarian, 2.12 µM. Further, the GI50 with SW-620 colon is 1.03 µM; with OVCAR-3 ovarian, 2.18 µM; in the experiment on HS 578T breast, 4.91 µM; with MALME-3M melanoma, 2.95 µM. Further, the total growth inhibition concentration (TGI) worked out at 5.48 µM with SK-MEL-5 melanoma; 7.02 µM in the experiment on NCI-H226 lung; 3.26 µM with SF-539 CNS; 7.58 µM with NCI-H460 lung; 4.82 µM in the experiment with NCI-H23 lung; 5.1 µM in the experiment with OVCAR-5 ovarian. In addition, the total growth inhibition concentration (TGI) in the experiment with SW-620 colon came out at 4.09 µM; with OVCAR-3 ovarian, 4.91 µM; in the experiment on HS 578T breast, 16.4 µM; in the experiment with MALME-3M melanoma, 6.65 µM.
